The values that follow come from publication PMC12990037, “Discovery of Two Structurally Distinct Classes of Inhibitors Targeting the Nuclease MUS81 and Enhancing Efficacy of Chemotherapy in Cancer Cells” (Journal of Medicinal Chemistry, 2026).

Molecules are shown by their SMILES.

The target in assay [1] is T1, truncated MUS81 binding to immobilized DNA substrate (Homo sapiens, UniProt Q96NY9).
T1 construct: made in house
T1 sequence (Q96NY9 246-551): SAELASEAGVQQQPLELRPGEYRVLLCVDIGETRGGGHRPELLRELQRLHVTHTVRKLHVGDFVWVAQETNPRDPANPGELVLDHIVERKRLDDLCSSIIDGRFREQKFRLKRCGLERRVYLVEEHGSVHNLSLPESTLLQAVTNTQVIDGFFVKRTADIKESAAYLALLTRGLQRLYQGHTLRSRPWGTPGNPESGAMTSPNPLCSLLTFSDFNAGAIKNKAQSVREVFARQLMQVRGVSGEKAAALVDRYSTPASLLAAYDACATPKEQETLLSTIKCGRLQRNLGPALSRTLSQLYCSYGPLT
T1 sequence (Q96AY2 178-570 partner limits assumed): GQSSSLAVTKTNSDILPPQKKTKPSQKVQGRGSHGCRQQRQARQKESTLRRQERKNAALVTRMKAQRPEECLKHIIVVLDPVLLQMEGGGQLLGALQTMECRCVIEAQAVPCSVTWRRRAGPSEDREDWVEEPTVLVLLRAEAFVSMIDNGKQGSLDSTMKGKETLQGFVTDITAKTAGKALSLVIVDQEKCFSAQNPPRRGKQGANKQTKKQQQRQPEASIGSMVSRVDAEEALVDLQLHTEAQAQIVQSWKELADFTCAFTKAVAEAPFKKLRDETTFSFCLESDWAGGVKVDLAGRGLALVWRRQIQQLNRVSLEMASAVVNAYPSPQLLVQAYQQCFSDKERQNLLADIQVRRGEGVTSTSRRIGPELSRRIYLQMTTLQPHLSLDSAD
As to the kind of experiment: Biolayer interferometry (BLI). As to conditions: truncated MUS81 200 nM. On the procedure: (A,B) Purified MUS81–EME1 (160 nM) was incubated with increasing concentrations of MU262, MU876, or their respective control analogues, followed by the addition of 3 nM fluorescently labeled 3′ flap DNA substrate. MgCl2 was omitted from the reaction buffer to prevent substrate cleavage. The reaction products were resolved on a native PAGE gel. The lower band represents a free DNA substrate, while the upper smear corresponds to the MUS81–DNA complex. n = 3. (C,D) A 3′ flap cleavage-resistant DNA substrate was immobilized on a streptavidin-coated (SAX) sensor and incubated with truncated MUS81 (200 nM) alone, or with MUS81 premixed with DMSO, MU876, MU262, or their respective control analogues. The real-time binding kinetics were measured as a change in optical thickness over time. Representative plots shown from two independent experiments. (E) Representative images of a DMSO-treated cell within 100 s after microirradiation. GFP-MUS81 U2OS cells were preincubated with DMSO or MU876 at 1 and 5 μM final concentration for 2 h. Localized DNA damage was induced using a 355 nm laser microirradiation at specific sites in individual nuclei. […] (F) The integrated intensity of a GFP-MUS81 signal accumulation ± SE from (E). n = 3.

For assay [2], the target named is T2, MUS81–EME1 (Homo sapiens, UniProt Q96NY9).
T2 construct: The MUS81–EME1 full-length expression plasmid was obtained from Stephen C; West; made in house; host or cells: Escherichia coli
T2 sequence (Q96NY9 1-551): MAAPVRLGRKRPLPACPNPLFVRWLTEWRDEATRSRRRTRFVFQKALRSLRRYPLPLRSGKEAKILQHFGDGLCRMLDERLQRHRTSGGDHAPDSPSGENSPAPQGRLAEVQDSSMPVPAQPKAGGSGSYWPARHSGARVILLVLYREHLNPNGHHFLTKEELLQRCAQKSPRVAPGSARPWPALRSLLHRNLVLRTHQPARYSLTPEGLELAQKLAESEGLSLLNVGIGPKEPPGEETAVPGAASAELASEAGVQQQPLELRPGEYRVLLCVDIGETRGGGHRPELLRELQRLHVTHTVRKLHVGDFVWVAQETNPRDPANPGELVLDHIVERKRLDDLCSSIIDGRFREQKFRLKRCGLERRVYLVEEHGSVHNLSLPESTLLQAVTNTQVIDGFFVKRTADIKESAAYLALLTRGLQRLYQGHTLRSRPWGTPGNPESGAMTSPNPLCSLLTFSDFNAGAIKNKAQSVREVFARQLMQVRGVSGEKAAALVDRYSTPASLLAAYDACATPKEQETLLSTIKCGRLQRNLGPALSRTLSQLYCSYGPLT
T2 sequence (Q96AY2 1-570 partner): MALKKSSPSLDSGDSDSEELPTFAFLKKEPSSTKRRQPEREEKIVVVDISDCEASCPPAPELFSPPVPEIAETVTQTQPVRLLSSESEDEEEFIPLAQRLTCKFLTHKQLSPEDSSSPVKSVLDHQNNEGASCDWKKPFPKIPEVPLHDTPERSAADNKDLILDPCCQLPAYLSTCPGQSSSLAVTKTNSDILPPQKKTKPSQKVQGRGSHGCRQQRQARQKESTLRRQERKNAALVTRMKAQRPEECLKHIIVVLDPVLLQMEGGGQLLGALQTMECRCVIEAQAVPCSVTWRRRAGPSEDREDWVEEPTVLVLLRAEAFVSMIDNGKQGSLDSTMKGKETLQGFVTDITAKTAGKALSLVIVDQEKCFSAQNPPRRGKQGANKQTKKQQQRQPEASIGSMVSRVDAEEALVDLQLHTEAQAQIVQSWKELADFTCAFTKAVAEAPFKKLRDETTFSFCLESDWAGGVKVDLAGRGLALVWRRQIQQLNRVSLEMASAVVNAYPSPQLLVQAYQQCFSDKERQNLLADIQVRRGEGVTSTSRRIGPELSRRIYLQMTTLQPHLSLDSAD
As to the kind of experiment: Gel-based in vitro nuclease assay: cleavage of 3′flap DNA by purified MUS81–EME1. The assay is classed as biochemical. As for the experimental part: To identify the small-molecule inhibitors of MUS81, we used two complementary screening approaches. The first involved a structure-based virtual screening, where over 140,000 small molecules were docked into the active site of MUS81 using AutoDock Vina software. […] The cleavage by purified MUS81-EME1 was monitored by gel electrophoresis, and the compound activity was quantified by measuring the reduction in cleavage product intensity.
Nuclease assays were performed in reaction buffer containing 50 mM Tris pH 7.5, 10 mM MgCl2, 1 mM DTT, 85 mM KCl, and 20% glycerol. Purified MUS81–EME1 (1 nM) was preincubated in 9 μL reaction with indicated concentrations of inhibitors for 15 min at room temperature, followed by the addition of 3 nM of a 3′flap DNA substrate (listed in Supplementary Table 9) and a further incubation for 15 min at 37 °C. The final concentration of DMSO in the reactions was 2%. The reactions were stopped by the addition of 0.1% SDS and 500 μg/mL of proteinase K, followed by incubation for 5 min at 37 °C. […] The fluorescent DNA was visualized using a FLA-9000 (Fujifilm). Bands corresponding to cleaved substrates were selected for quantification using the MultiGauge 3.2 software. Final data represent integrated density of these bands with background subtraction. Fitting of the data with sigmoid curves was performed in OriginPro (OriginLab).

Take `CCc1nn2c(O)c(-c3nc4ccccc4[nH]3)nnc2c1-c1ccc(F)cc1` [Compound 18, 3-(1H-Benzo[d]imidazole-2-yl)-7-ethyl-8-(4-fluorophenyl)pyrazolo[5,1-c][1,2,4]triazin-4-ol]: the “effect on MUS81–DNA binding (BLI)” value in assay [1] was “only negligible effect”. For the same molecule, the IC50 (in general, the concentration that inhibits the measured activity by half) in assay [2] (Table 1, in vitro) is less than 1000 nM; in assay [2] (text and figures, MUS81–EME1 1 nM, 3 nM 3′ flap DNA), 870 nM.
